Measured values reported in ChEMBL document CHEMBL5120927, “LEGO-Lipophosphonoxins: A Novel Approach in Designing Membrane Targeting Antimicrobials” (J Med Chem, 2022).

What was measured:
Assay type in all cases: functional
[1] = test system: Staphylococcus aureus; test: Antibacterial activity against antibiotic resistant Staphylococcus aureus 4460/A assessed as reduction in microbial growth incubated for 24 hrs by microdilution assay
[2] = test system: Staphylococcus aureus; test: Antibacterial activity against antibiotic resistant Staphylococcus aureus 78/CF assessed as reduction in microbial growth incubated for 24 hrs by microdilution assay
[3] = test system: Staphylococcus aureus; test: Antibacterial activity against antibiotic resistant Staphylococcus aureus 4482/A assessed as reduction in microbial growth incubated for 24 hrs by microdilution assay
[4] = test system: Staphylococcus aureus; test: Antibacterial activity against antibiotic resistant Staphylococcus aureus 4862/C assessed as reduction in microbial growth incubated for 24 hrs by microdilution assay
[5] = test system: Staphylococcus aureus; test: Antibacterial activity against antibiotic resistant Staphylococcus aureus 4463/A assessed as reduction in microbial growth incubated for 24 hrs by microdilution assay
[6] = test system: Staphylococcus aureus; test: Antibacterial activity against antibiotic resistant Staphylococcus aureus 5079/C assessed as reduction in microbial growth incubated for 24 hrs by microdilution assay
[7] = test system: Staphylococcus aureus; test: Antibacterial activity against antibiotic resistant Staphylococcus aureus 4717/B assessed as reduction in microbial growth incubated for 24 hrs by microdilution assay
[8] = test system: Staphylococcus aureus; test: Antibacterial activity against antibiotic resistant Staphylococcus aureus 4740/B assessed as reduction in microbial growth incubated for 24 hrs by microdilution assay
[9] = test system: Staphylococcus aureus; test: Antibacterial activity against wild type methicillin resistant Staphylococcus aureus 5017/C assessed as reduction in microbial growth incubated for 24 hrs by microdilution assay
[10] = test system: Staphylococcus aureus; test: Antibacterial activity against wild type methicillin resistant Staphylococcus aureus 4968/C assessed as reduction in microbial growth incubated for 24 hrs by microdilution assay
[11] = test system: Staphylococcus aureus; test: Antibacterial activity against antibiotic resistant Staphylococcus aureus 4880/C assessed as reduction in microbial growth incubated for 24 hrs by microdilution assay
[12] = test system: Staphylococcus aureus; test: Antibacterial activity against antibiotic resistant Staphylococcus aureus 4679/B assessed as reduction in microbial growth incubated for 24 hrs by microdilution assay
[13] = test system: Staphylococcus aureus; test: Antibacterial activity against antibiotic resistant Staphylococcus aureus 4461/A assessed as reduction in microbial growth incubated for 24 hrs by microdilution assay
[14] = test system: Staphylococcus aureus; test: Antibacterial activity against antibiotic resistant Staphylococcus aureus 77/CF assessed as reduction in microbial growth incubated for 24 hrs by microdilution assay
[15] = test system: Staphylococcus aureus; test: Antibacterial activity against antibiotic resistant Staphylococcus aureus 4557/A assessed as reduction in microbial growth incubated for 24 hrs by microdilution assay
[16] = test system: Staphylococcus aureus; test: Antibacterial activity against antibiotic resistant Staphylococcus aureus 4904/C assessed as reduction in microbial growth incubated for 24 hrs by microdilution assay
[17] = test system: Staphylococcus aureus; test: Antibacterial activity against antibiotic resistant Staphylococcus aureus 4502/A assessed as reduction in microbial growth incubated for 24 hrs by microdilution assay
[18] = test system: Staphylococcus aureus; test: Antibacterial activity against wild type methicillin resistant Staphylococcus aureus 4561/A assessed as reduction in microbial growth incubated for 24 hrs by microdilution assay
[19] = test system: Staphylococcus aureus; test: Antibacterial activity against antibiotic resistant Staphylococcus aureus 4504/A assessed as reduction in microbial growth incubated for 24 hrs by microdilution assay
[20] = test system: Staphylococcus aureus; test: Antibacterial activity against antibiotic resistant Staphylococcus aureus 4883/C assessed as reduction in microbial growth incubated for 24 hrs by microdilution assay
[21] = test system: Staphylococcus aureus; test: Antibacterial activity against antibiotic resistant Staphylococcus aureus 4738/B assessed as reduction in microbial growth incubated for 24 hrs by microdilution assay
[22] = test system: Staphylococcus aureus; test: Antibacterial activity against antibiotic resistant Staphylococcus aureus 4566/A assessed as reduction in microbial growth incubated for 24 hrs by microdilution assay
[23] = test system: Staphylococcus aureus; test: Antibacterial activity against antibiotic resistant Staphylococcus aureus 4788/B assessed as reduction in microbial growth incubated for 24 hrs by microdilution assay
[24] = test system: Staphylococcus aureus; test: Antibacterial activity against antibiotic resistant Staphylococcus aureus 4515/A assessed as reduction in microbial growth incubated for 24 hrs by microdilution assay

**Q.** CC1(C)S[C@@H]2[C@H](NC(=O)Cc3ccccc3)C(=O)N2[C@H]1C(=O)O [PENICILLIN G] was tested. Which MIC [1] did it give?
**A.** The MIC was 1 µg/mL.

**Q.** And the MIC [2]?
**A.** The MIC was 0.25 µg/mL.

**Q.** And the MIC [3]?
**A.** The MIC was 2 µg/mL.

**Q.** What about the MIC [4] of the same molecule?
**A.** The MIC was 1 µg/mL.

**Q.** What about the MIC [5] of the same molecule?
**A.** The MIC was 0.25 µg/mL.

**Q.** What about the MIC [6] of the same molecule?
**A.** The MIC was 0.25 µg/mL.

**Q.** What about the MIC [7] of the same molecule?
**A.** Its MIC is 0.5 µg/mL.

**Q.** What about the MIC [8] of the same molecule?
**A.** The MIC was 0.25 µg/mL.

**Q.** What about the MIC [9] of the same molecule?
**A.** Its MIC is > 4 µg/mL.

**Q.** What about the MIC [10] of the same molecule?
**A.** Its MIC is > 4 µg/mL.

**Q.** What about the MIC [11] of the same molecule?
**A.** Its MIC is 0.25 µg/mL.

**Q.** And the MIC [12]?
**A.** The MIC was 0.5 µg/mL.

**Q.** What about the MIC [13] of the same molecule?
**A.** Its MIC is 1 µg/mL.

**Q.** And the MIC [14]?
**A.** The MIC was 0.5 µg/mL.

**Q.** And the MIC [15]?
**A.** Its MIC is 0.25 µg/mL.

**Q.** And the MIC [16]?
**A.** The MIC was 0.25 µg/mL.

**Q.** And the MIC [17]?
**A.** Its MIC is 0.25 µg/mL.

**Q.** And the MIC [18]?
**A.** Its MIC is > 2 µg/mL.

**Q.** And the MIC [19]?
**A.** The MIC was 0.25 µg/mL.

**Q.** What about the MIC [20] of the same molecule?
**A.** The MIC was 0.25 µg/mL.

**Q.** And the MIC [21]?
**A.** Its MIC is 1 µg/mL.

**Q.** What about the MIC [22] of the same molecule?
**A.** Its MIC is 0.25 µg/mL.

**Q.** What about the MIC [23] of the same molecule?
**A.** Its MIC is 0.25 µg/mL.

**Q.** And the MIC [24]?
**A.** Its MIC is 0.5 µg/mL.
